Results as given in patent US20260378560A1, “APPROACHES TO DESIGNING AND PERFORMING COMPRESSED BIOLOGICAL EXPERIMENTS AND SYSTEMS FOR IMPLEMENTING THE SAME” (EXVIVO LABS INC., priority 2023, published 2026).

Key:
MOLT-4 [1] = assay: Cell viability (CellTiter Glo), library of cancer drugs, individual or sample compression with randomized (alphabetical) pools, MOLT-4; type: cell-based; details: for DRS: MOLT-4, None (measured individually); for DRS from deconvolution: MOLT-4, Samples, 7 Pick 3 randomized (alphabetical) sample pools
Summary of the method: (§1)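 Cells cultured with each drug individually at 1 nM–10 μM; viability by ATP luminescence (CellTiter Glo) to build dose-response curves and DRS. Samples read singly or pooled alphabetically (each drug in 3 of 7 pools), with pooled DRS recovered by additivity-based SUM deconvolution.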

MOLT-4 [2] = assay: Cell viability (CellTiter Glo), compressed perturbation pools with informed pool design, MAX-based deconvolution, MOLT-4; details: for DRS: MOLT-4, None (measured individually), informed pool design table; for DRS from MAX-based deconvolution: MOLT-4, Samples, 7 Pick 3 informed perturbation pools; for DRS, MOLT-4, MAX: compressed perturbation pools, informed pool design, MAX-based deconvolution;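 as to DRS from MAX-based deconvolution: higher DRS means a larger drug effect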
Summary of the method: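 Per-drug DRS recovered by MAX deconvolution, which assumes the strongest pool member masks the rest; after ranking, each drug in turn takes the DRS of the lowest-signal pool containing it, and leftovers score zero. Pools built from drug class and known toxic combinations; dose-response spans 1 nM to 10 μM, read by ATP-based luminescence.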

REH = assay: Cell viability (CellTiter Glo), library of cancer drugs, individual or sample compression with randomized (alphabetical) pools, REH; type: cell-based; details: REH; for DRS: None (measured individually); for DRS from deconvolution: Samples, 7 Pick 3 randomized (alphabetical) sample pools
Summary of the method: as §1

| Structure (SMILES) | DRS (MOLT-4 [1]) | DRS from deconvolution (MOLT-4 [1]) | DRS (MOLT-4 [2]) | DRS from MAX-based deconvolution (MOLT-4 [2]) | DRS (REH) | DRS from deconvolution (REH) | DRS, MOLT-4, MAX (MOLT-4 [2]) |
| --- | --- | --- | --- | --- | --- | --- | --- |
| COc1c(OCCCN2CCOCC2)ccc2c1N=C(NC(=O)c1cnc(N)nc1)N1CCN=C21 [Copanlisib] | 9.01 | 9.65 | 0.03 | 0.03 | 12.67 | 12.51 | – |
| COc1cc2ncnc(Nc3ccc(F)c(Cl)c3)c2cc1OCCCN1CCOCC1 [Gefitinib] | 2.96 | 3.02 | 0.00 | 0.00 | 5.66 | 5.59 | 0.00 |
| N#Cc1ccnc(N2C(=O)CC[C@H]2C(=O)N(c2cncc(F)c2)[C@H](C(=O)NC2CC(F)(F)C2)c2ccccc2Cl)c1 [Ivosidenib] | 0.11 | 0.00 | 1.12 | 1.96 | 0.37 | 0.00 | – |
| C=CC(=O)Nc1cc(Nc2nccc(-c3cn(C)c4ccccc34)n2)c(OC)cc1N(C)CCN(C)C [Osimertinib] | 1.84 | 0.99 | 0.10 | 0.00 | 5.84 | 6.12 | 0.00 |
| Cc1[nH]c2ccccc2c1CCNCc1ccc(/C=C/C(=O)NO)cc1 [Panobinostat] | 15.70 | 16.56 | 3.01 | 3.24 | 13.34 | 13.96 | – |
| CC1(C)CCC(CN2CCN(c3ccc(C(=O)NS(=O)(=O)c4ccc(NCC5CCOCC5)c([N+](=O)[O-])c4)c(Oc4cnc5[nH]ccc5c4)c3)CC2)=C(c2ccc(Cl)cc2)C1 [Venetoclax] | 2.74 | 2.89 | 3.37 | 3.88 | 3.91 | 4.05 | 3.41 |
